Data: patent US10272260B2, “Methods and devices for diagnosing, monitoring, or treating medical conditions through an opening through an airway wall” (Broncus Medical Inc., priority 2011, dated 2019)

Settings: polymer system of polydimethylsiloxane vinyl terminated at various viscosity and a range of platinum-mono, di, tri and/or tetramethyldisiloxane complex
Source text: The amount of vinyl siloxane cross-linker may determine the rate of the drug release and diffusivity of the polymer to the drug.

release profile: acceptable
Structure (SMILES): CC(=O)O[C@H]1C(=O)[C@@]2(C)[C@H]([C@H](OC(=O)c3ccccc3)[C@]3(O)C[C@H](OC(=O)[C@H](O)[C@@H](NC(=O)c4ccccc4)c4ccccc4)C(C)=C1C3(C)C)[C@]1(OC(C)=O)CO[C@@H]1C[C@@H]2O [paclitaxel]
